Data from patent US8524755B2 (priority 2009, dated 2013).

How the values were obtained:
[1] = [14C]RD162′ radio-HPLC metabolite profile in Pooled Rat Plasma; type: in vivo, Sprague Dawley rats; conditions: [14C]RD162′ 100 mg/kg/day oral, day 7, 4 h
Method: The rats were dosed once a day for seven consecutive days; four hours after dosing on the seventh day, plasma was collected from all three rats. The plasma samples were stored at approximately −70° C. or colder.
Positive ion electrospray LC/MS and LC/MS/MS were used to analyze the metabolites.
To prepare the Pooled Rat Plasma for HPLC analysis, approximately 1 g of the plasma sample was combined with acetonitrile (ACN, sample:ACN, 1:3, v:v), vortex mixed, sonicated in cold water, centrifuged, and the supernatants were removed. The extraction was repeated twice and the respective supernatants were combined. […] The combined supernatants were evaporated to dryness and reconstituted in 1 mL of 0.1% formic acid in reverse osmosis (RO) water:ACN: methanol (MeOH, 50:45:5, v:v:v). […] The reconstituted sample was analyzed by HPLC to determine the metabolite profile with fractions collected at 10-second intervals and analyzed by solid scintillation counting.
The prepared samples were analyzed using the following LC/MS/MS conditions: HPLC: Hewlett Packard 1100 series; Mobile Phase: 0.1% formic acid in reverse osmosis water (A) and acetonitrile (B); Column: Agilent Eclipse XDB-C18, 4.6×150 mm, 5 μm; Guard column: Phenomenex Security Guard Cartridge C18, 3×4 mm; Column temperature: 20° C.; Gradient: 20-80% B in 40 min; Flow Rate: 1.5 mL/min.

[2] = system: kainate; assay: Binding kainate (ag); design: species or system rat
Method: (§1) Radioligand binding assay methods utilized to measure the activity of compounds of the invention will be familiar to those skilled in the art. In each assay case, the assay components such as, for example, the cell-type, ligand, reference compound and the like, will be familiar to practitioners of such an assay.
(§2) Analysis and Expression of Results: Compounds of the invention were tested in the biochemical assays and percent inhibition of specific binding was determined. The specific ligand binding to the receptors is defined as the difference between the total binding and the nonspecific binding determined in the presence of an excess of unlabelled ligand. The results are expressed as a percent inhibition of control specific binding (100−((measured specific binding/control specific binding)×100)) obtained in the presence of test compounds.

[3] = system: NMDA; assay: Binding NMDA (aa); design: species or system rat
Method: as §1, §2

[4] = target: T1, Melanocortin MC4 (h) (Homo sapiens, UniProt P32245); assay: Binding MC4 (h) (ag); conditions: read-out: % Inhibition of Control Specific Binding @ 10 μM
T1 construct: expressed in transfected cells; host or cells: CHO cells
Method: as §1, §2

[5] = target: T2, Cannabinoid CB1 (h) (Homo sapiens, UniProt P21554); assay: Binding CB1 (h) (ag); conditions: read-out: % Inhibition of Control Specific Binding @ 10 μM
T2 construct: expressed in transfected cells; host or cells: CHO cells
Method: as §1, §2

[6] = system: SKCa channel; assay: Binding SKCa channel (aa); design: species or system rat
Method: as §1, §2

[7] = target: T3, Cholecystokinin CCK2 (CCKB) (h) (Homo sapiens, UniProt P32239); assay: Binding CCK2 (CCKB) (h) (ag); conditions: read-out: % Inhibition of Control Specific Binding @ 10 μM
T3 construct: expressed in transfected cells; host or cells: CHO cells
T3 sequence (P32239 1-447): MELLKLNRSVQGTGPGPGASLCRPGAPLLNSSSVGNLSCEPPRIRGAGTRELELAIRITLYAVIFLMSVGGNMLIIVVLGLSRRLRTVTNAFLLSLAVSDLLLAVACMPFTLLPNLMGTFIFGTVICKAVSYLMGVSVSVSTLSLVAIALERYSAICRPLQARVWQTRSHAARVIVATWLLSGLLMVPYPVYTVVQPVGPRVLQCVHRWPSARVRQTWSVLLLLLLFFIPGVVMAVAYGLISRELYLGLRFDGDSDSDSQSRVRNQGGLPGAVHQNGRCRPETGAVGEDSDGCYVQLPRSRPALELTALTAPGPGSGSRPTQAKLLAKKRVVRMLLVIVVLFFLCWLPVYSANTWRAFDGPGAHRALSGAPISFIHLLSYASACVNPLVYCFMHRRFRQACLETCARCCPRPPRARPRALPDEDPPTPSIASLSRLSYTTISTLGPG
Method: as §1, §2

[8] = system: P2Y; assay: Binding P2Y (ag); design: species or system rat
Method: as §1, §2

[9] = target: T4, Dopamine D1 (h) (Homo sapiens, UniProt P21728); assay: Binding D1 (h) (aa); conditions: read-out: % Inhibition of Control Specific Binding @ 10 μM
T4 construct: expressed in transfected cells; host or cells: CHO cells
Method: as §1, §2

[10] = system: GABA (ns); assay: Binding GABA (ns) (ag); design: species or system rat
Method: as §1, §2

[11] = system: GABA transporter; assay: Binding GABA transporter (aa); design: species or system rat
Method: as §1, §2

[12] = target: T5, BLT1 (LTB4) (h) (Homo sapiens, UniProt Q15722); assay: Binding BLT1 (LTB4) (h) (ag); conditions: read-out: % Inhibition of Control Specific Binding @ 10 μM
T5 construct: expressed in transfected cells; host or cells: CHO cells
Method: as §1, §2

[13] = system: Ca^2+ channel (L, verapamil site) (phenylalkylamine); assay: Binding Ca2+ channel (L, verapamil site) (aa); design: species or system rat
Method: as §1, §2

[14] = target: T6, PNMT (Bos taurus, UniProt P10938); assay: Enzyme assay PNMT; type: biochemical, bovine; conditions: read-out: % Inhibition of Control Values @ 10 μM
T6 construct: bovine adrenal medulla; from tissue; host or cells: bovine adrenal medulla
T6 sequence (P10938 1-283): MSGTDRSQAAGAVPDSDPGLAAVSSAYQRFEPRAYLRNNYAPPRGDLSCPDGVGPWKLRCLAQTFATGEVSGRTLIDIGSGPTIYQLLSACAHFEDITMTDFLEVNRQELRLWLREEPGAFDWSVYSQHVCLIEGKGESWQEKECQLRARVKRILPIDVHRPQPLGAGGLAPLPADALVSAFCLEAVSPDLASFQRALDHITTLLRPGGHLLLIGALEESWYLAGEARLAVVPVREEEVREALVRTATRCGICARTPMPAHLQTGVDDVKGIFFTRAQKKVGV
Source text: The enzyme assays provided below will be familiar to those skilled in the art.
Analysis and Expression of Results: The results are expressed as a percent of control specific activity ((measured specific activity/control specific activity)×100) obtained in the presence of the test compounds.

[15] = target: T7, GnRH (LH-RH) (Rattus norvegicus, UniProt P30969); assay: Binding GnRH (LH-RH) (ag); conditions: read-out: % Inhibition of Control Specific Binding @ 10 μM
T7 construct: rat pituitary gland; from tissue; host or cells: rat pituitary gland
T7 sequence (P30969 1-327): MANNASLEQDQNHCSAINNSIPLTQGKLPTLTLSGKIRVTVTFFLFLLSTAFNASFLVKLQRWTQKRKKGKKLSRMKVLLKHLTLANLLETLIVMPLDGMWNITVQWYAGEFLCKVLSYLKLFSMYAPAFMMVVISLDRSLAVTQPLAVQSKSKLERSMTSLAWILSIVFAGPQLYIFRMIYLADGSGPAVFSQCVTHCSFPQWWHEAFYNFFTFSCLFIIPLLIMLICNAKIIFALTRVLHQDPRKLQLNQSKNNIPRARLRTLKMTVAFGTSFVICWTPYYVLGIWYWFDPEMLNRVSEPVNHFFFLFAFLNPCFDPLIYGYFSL
Method: as §1, §2

T5 sequence (Q15722 whole entry): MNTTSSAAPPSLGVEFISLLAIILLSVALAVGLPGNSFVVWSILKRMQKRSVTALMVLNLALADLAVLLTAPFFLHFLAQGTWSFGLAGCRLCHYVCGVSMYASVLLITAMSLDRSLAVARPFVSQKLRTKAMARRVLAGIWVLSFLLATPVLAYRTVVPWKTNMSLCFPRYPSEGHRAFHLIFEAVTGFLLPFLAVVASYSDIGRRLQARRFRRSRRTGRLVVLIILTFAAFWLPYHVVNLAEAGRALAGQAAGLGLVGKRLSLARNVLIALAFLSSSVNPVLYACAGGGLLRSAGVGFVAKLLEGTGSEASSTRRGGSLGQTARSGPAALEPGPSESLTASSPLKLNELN
T4 sequence (P21728 whole entry): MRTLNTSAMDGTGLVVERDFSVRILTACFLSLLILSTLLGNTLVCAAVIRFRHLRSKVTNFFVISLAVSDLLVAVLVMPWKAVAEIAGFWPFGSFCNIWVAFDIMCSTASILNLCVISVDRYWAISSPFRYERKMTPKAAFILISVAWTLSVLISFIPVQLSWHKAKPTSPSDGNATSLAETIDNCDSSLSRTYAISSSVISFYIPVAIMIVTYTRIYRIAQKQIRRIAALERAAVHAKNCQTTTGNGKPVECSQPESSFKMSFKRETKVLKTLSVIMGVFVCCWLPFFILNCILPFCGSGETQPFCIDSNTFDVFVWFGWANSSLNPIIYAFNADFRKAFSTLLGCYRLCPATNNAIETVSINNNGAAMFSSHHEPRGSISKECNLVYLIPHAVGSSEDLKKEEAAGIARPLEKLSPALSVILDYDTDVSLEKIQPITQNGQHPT
T2 sequence (P21554 whole entry): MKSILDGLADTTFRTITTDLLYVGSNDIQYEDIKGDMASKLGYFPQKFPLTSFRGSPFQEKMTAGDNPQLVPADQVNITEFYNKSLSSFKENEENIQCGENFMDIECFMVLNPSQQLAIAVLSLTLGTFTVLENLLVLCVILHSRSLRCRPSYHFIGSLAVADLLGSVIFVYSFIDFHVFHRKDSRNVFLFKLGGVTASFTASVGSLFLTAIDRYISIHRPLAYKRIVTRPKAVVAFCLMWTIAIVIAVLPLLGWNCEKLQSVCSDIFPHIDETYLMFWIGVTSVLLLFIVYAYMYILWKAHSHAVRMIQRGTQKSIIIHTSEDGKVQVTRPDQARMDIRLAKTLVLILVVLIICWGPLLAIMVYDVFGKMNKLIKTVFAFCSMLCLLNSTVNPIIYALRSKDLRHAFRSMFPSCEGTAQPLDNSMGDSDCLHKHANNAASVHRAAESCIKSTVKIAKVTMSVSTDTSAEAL
T1 sequence (P32245 whole entry): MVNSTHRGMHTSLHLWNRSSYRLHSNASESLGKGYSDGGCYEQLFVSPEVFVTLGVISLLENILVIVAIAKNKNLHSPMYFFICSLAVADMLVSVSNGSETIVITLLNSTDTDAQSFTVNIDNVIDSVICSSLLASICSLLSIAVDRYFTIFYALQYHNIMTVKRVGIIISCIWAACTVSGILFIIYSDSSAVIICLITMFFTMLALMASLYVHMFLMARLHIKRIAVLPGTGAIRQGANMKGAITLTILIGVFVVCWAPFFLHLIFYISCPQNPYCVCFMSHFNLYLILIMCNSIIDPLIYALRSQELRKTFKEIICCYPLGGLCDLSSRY

Structure (SMILES)	% Injected Radioactivity (%) [1]	% Recovered Radioactivity (%) [1]	Peak Area (mV) [1]	Peak Height (mV) [1]	% Inhibition of Control Specific Binding @ 10 μM [2]	% Inhibition of Control Specific Binding @ 10 μM [3]	inhibition at 10 µM [4]	inhibition at 10 µM [5]	% Inhibition of Control Specific Binding @ 10 μM [6]	inhibition at 10 µM [7]	% Inhibition of Control Specific Binding @ 10 μM [8]	inhibition at 10 µM [9]	% Inhibition of Control Specific Binding @ 10 μM [10]	% Inhibition of Control Specific Binding @ 10 μM [11]	inhibition at 10 µM [12]	% Inhibition of Control Specific Binding @ 10 μM [13]	inhibition at 10 µM [14]	inhibition at 10 µM [15]
CC1(C)C(=O)N(c2ccc(C#N)c(C(F)(F)F)c2)C(=S)N1c1ccc(C(=O)O)c(F)c1 [(MI), 4-(3-(4-cyano-3-(trifluoromethyl)phenyl)-5,5-dimethyl-4-oxo-2-thioxoimidazolidin-1-yl)-2-fluorobenzoic acid]	11.02%	17.31%	589 mV	86 mV	−4%	2%	-23%	-20%	−6%	-10%	−19%	-18%	−12%	−16%	-15%	−2%	-6%	-21%
CC1(C)C(=O)N(c2ccc(C#N)c(C(F)(F)F)c2)C(=O)N1c1ccc(C(N)=O)c(F)c1 [(MIII), 4-(3-(4-cyano-3-(trifluoromethyl)phenyl)-5,5-dimethyl-2,4-dioxoimidazolidin-1-yl)-2-fluorobenzamide]	7.96%	12.50%	426 mV	77 mV	−10%	0%	-11%	6%	1%	-18%	−1%	-17%	−10%	−35%	-4%	−1%	-2%	5%
CNC(=O)c1ccc(N2C(=O)N(c3ccc(C#N)c(C(F)(F)F)c3)C(=O)C2(C)C)cc1F [(MIV), 4-(3-(4-cyano-3-(trifluoromethyl)phenyl)-5,5-dimethyl-2,4-dioxoimidazolidin-1-yl)-2-fluoro-N-methylbenzamide]	8.45%	13.27%	452 mV	63 mV	−8%	−41%	-15%	4%	−10%	-12%	0%	-17%	5%	−24%	-6%	−5%	14%	0%
CC1(C)C(=O)N(c2ccc(C#N)c(C(F)(F)F)c2)C(=S)N1c1ccc(C(N)=O)c(F)c1 [(MII), 4-(3-(4-Cyano-3-(trifluoromethyl)phenyl)-5,5-dimethyl-4-oxo-2-thioxoimidazolidin-1-yl)-2-fluorobenzamide]	5.38%	8.45%	288 mV	43 mV	−21%	5%	-25%	11%	4%	-18%	−2%	-14%	0%	7%	-8%	−13%	-4%	-51%
